Reference: US8492414B2, “Antibacterial agents” (Biota Scientific Management Pty Ltd, priority 2007, dated 2013)
Values after ≈ are worked out from the molar mass of the structure shown.

These compounds were tested on Staphylococcus aureus ATCC29213 (assay: Minimum Inhibitory Concentration (MIC) testing, broth microdilution or agar dilution). Conditions: MIC scored A/B/C, read-out: Staphylococcus aureus MICs, Activity.
Type: cell-based
Method: Minimum Inhibitory Concentration (MIC) Testing Compounds of this invention were tested for antimicrobial activity by susceptibility testing in liquid or on solid media. […] Activities were scored as ‘A’ if the MIC was ≦[…] micrograms/ml, ‘B’ if the MIC was 0.25 to 4 micrograms/ml and ‘C’ if the MIC was greater than 4 micrograms/ml.

MIC | SMILES
≤ 1.12 mg/L | NC(=O)c1c(F)ccc(OCc2nc(-c3ccc(Cl)cc3)ns2)c1F [Example 1, 3-[3-(4-Chlorophenyl)-[1,2,4]thiadiazol-5-ylmethoxy]-2,6-difluorobenzamide]
≤ 1.12 mg/L | COc1ccc(-c2nsc(COc3ccc(F)c(C(N)=O)c3F)n2)cc1 [Example 2, 2,6-Difluoro-3-[3-(4-methoxyphenyl)-[1,2,4]thiadiazol-5-ylmethoxy]-benzamide]
≤ 1.12 mg/L | NC(=O)c1c(F)ccc(OCc2nc(-c3ccc(OC(F)(F)F)cc3)ns2)c1F [Example 3, 2,6-Difluoro-3-[3-(4-trifluoromethoxyphenyl)-[1,2,4]thiadiazol-5-ylmethoxy]-benzamide]
0.25 to 4 mg/L (≈ 0.688 to 11 µM) | NC(=O)c1c(F)ccc(OCc2nc(-c3ccc(O)cc3)ns2)c1F [Example 4, 2,6-Difluoro-3-[3-(4-hydroxyphenyl)-[1,2,4]thiadiazol-5-ylmethoxy]-benzamide]
0.25 to 4 mg/L (≈ 0.607 to 9.71 µM) | COc1cc(Cl)ccc1-c1nsc(COc2ccc(F)c(C(N)=O)c2F)n1 [Example 5, 3-((3-(4-chloro-2-methoxyphenyl)-1,2,4-thiadiazol-5-yl)methoxy)-2,6-difluorobenzamide]
0.25 to 4 mg/L (≈ 0.512 to 8.2 µM) | NC(=O)c1c(F)ccc(OCc2nc(-c3ccc(Cl)cc3OCc3ccccc3)ns2)c1F [Example 6, 3-((3-(2-(Benzyloxy)-4-chlorophenyl)-1,2,4-thiadiazol-5-yl)methoxy)-2,6-difluorobenzamide]
≤ 1.12 mg/L | NC(=O)c1c(F)ccc(OCc2nc(-c3ccc(Cl)cc3O)ns2)c1F [Example 7, 3-((3-(4-chloro-2-hydroxyphenyl)-1,2,4-thiadiazol-5-yl)methoxy)-2,6-difluorobenzamide]
